From patent US20070043114A1, “Nerve regeneration promoters” (priority 2003, published 2007)

Experiments:
[1] = system: four-vein ligated (4VO) rat model; assay: 4VO rat model: BrdU and NeuN double immunostaining, hippocampus CA1 region; type: in vivo, rat of Wistar strain; details: 4VO rats, 10 mg/kg oral once daily for 40 days from 8th day after 4VO, n=13
Protocol: (§1) A four-vein ligated (4VO) rat model was prepared by a partially modified method by Prusinery, et al. (J. Cereb. Blood Flow Metab., 16, 973-980 […]). Thus, vertebral arteries on both sides of male rat of Wistar strain were permanently obstructed and, on the next day, whole carotid artery was exposed and was temporally obstructed for 10 minutes using a clip. Rats where no response was noted immediately after obstruction of whole carotid arteries on both sides and forward-facing response disappeared were used for the experiment.
Evaluation of nerve cell regeneration was conducted by preparing brain tissue sample by Nissl staining and counting nerve cell numbers in right and left hippocampus CA1 regions.
Confirmation of the fact that […] nerve cells increased in Example 1-A-2-1 were regenerated nerve cells was conducted by preparing a brain tissue sample immunostained with BrdU and NeuN and counting nerve cell numbers which were positive to double staining in right and left hippocampus CA1 region. […] Nerve cell numbers which were positive to double staining were calculated as number per unit length (mm) using nerve cell layer length of the hippocampus CA1 region and nerve cell numbers which were positive to double staining.

[2] = system: four-vein ligated (4VO) rat model; assay: 4VO rat model: water maze learning test; type: in vivo, rat of Wistar strain; details: 4VO rats; for successful times compared with the control group (χ2 test): fourth session, p<0.05
Protocol: as §1
A four-vein ligated (4VO) rat model was prepared according to a method mentioned in Example 1-A-1 and subjected to the following test.
In the water maze learning test, a black circular pool (manufactured by Neuroscience) of 150 cm diameter and 50 cm height was used. The pool was filled with tap water of about 23° C. to a height of about 30 cm (platform surface was about 1 cm beneath the water surface). The platform (made of colorless and transparent acrylate; circular shape having 10 cm diameter) which was to be a goal was placed in a distance of about 35 cm from the inner wall of the pool. During the test period, positions of things which were hints for recognition of space such as racks, illumination instruments and persons who conducted the experiments were made constant and illumination level was made constant as well.
Rats on the third day after completion of repetitive administrations were allowed to stand at a starting position and the time until they climbed up to the platform (escape latency (seconds)) was measured. Maximum swimming time for climbing up to the platform was made 90 seconds and, when a rat climbed up to the plant form, it was allowed to stand there for about 30 seconds and then returned to a cage. When a rat was unable to climb up to the platform within a measuring time of 90 seconds, the rat was taken out from water, transferred onto the platform, allowed to stand there for about 30 seconds and returned to the cage. Incidentally, the escape latency at that time was counted as 90 seconds. Interval between trials was made about 30 minutes, four trials were conducted a day and they were defined as one session. Such a session was conducted for continued four days and (1) escape latency and (2) successful times (times of being able to reach the platform during four trials) were evaluated.

[3] = system: astrocytes derived from cerebral cortex of rats; assay: differentiation test of astrocytes derived from cerebral cortex of rats; type: cell-based, rats of Wistar strain; details: for positive cell numbers per visual field stained by an anti-βIII-tubulin antibody: differentiated seven days, no compound-added group 93±10.9
Protocol: Cerebrum was excised from newly-born rats of Wistar strain and, after removal of meninx under a stereoscopic microscope, it was ground with a frost part of a slide glass with frost in an ice-cooled DMEM medium to prepare a suspension. Centrifugal separation was conducted at 100×g for 3 minutes and the precipitate was suspended in a 10% bovine fetal serum-DMEM medium and sown in a 75-cm^2 flask. After two days from the start of culturing, cell purification was conducted. On the 19th day from the start of the culturing, astrocytes were recovered using 0.05% trypsin/EDTA and the cells were suspended again using a differentiation medium (a DMEM/F12 medium (Gibco) containing N2 additive (N2 Plus Supplement; R&D Systems) and 1% fetal bovine serum (manufactured by Dainippon Pharmaceutical). That was sown on a chamber slide and, on the next day, the culturing solution was exchanged to a differentiated medium (a DMEM/F12 medium comprising N2 additive, antibiotic and 1% fetal bovine serum) containing a test compound. After differentiating for seven days, fixation was conducted using 4% paraformaldehyde and the following immunostaining was conducted. With regard to nerve cells prepared by differentiation of astrocytes derived from cerebral cortex of rats, their differentiation stage was confirmed by means of immunostaining. Incidentally, anti-βIII-tubulin antibody and anti-doublecortin antibody were used for confirmation of young nerve cells; anti-MAP2 antibody, anti-NeuN antibody and anti-NSE antibody were used for confirmation of mature nerve cells; and anti-GABA antibody was used for confirmation of functional nerve cells.

[4] = dog, in vivo, 100 mg/kg
Text: Toxicity of the compound of the present invention is sufficiently low and has been confirmed to be sufficiently safe for using as a medicament.

[5] = system: four-vein ligated (4VO) rat model; assay: 4VO rat model: histological observation (Nissl-stained specimen), hippocampus CA1 nerve cell numbers; type: in vivo, rat of Wistar strain; details: 4VO rats, 1 mg/kg oral
Protocol: as §1
A four-vein ligated (4VO) rat model was prepared according to a method mentioned in Example 1-A-1 and subjected to the following test. […]
With regard to the specimens for histopathological test, three kinds of specimens, i.e. (1) Nissl-stained specimen (a site of 5.7 mm from interaural line), (2) specimen stained with hematoxylin-eosin and (3) unstained specimen (thickness: 10 μm) were prepared for brain tissue sample from one animal. Among them, with regard to the Nissl-stained specimen, right and left hippocampus CA1 nerve cell layer lengths and nerve cell numbers were measured by using Image Analyzer (MCID Elite 7.0 Rev.1.0) and numbers per unit length (mm) were calculated to conduct a histological evaluation.

[6] = system: nerve stem cells derived from striatum of a rat; assay: differentiation test of stem cells derived from fetal brain of rats; type: cell-based, rat of Wistar strain; details: 30 μmol/L
Protocol: Fetus was taken out from a pregnant rat of Wistar strain and striatum was excised from brain of the fetus. Cells were dispersed by means of pipetting and incubated for six to seven days in a growth medium (a DMEM/F12 medium (manufactured by Gibco) containing N2 additive (N2 Plus Supplement; R&D Systems), antibiotics, basic fibroblast growth factor (20 ng/mL bFGF; manufactured by R&D Systems) and epithelial cell growth factor (20 ng/mL EGF; manufactured by R&D Systems). The resulting neurospheres were recovered, cells were dispersed by means of pipetting and culturing was conducted for six to seven days more using a growth medium. Neurospheres which were produced again were recovered and, after cells were dispersed, they were cultured on a chamber slide subjected to a poly-L-ornithine coating. After incubating for 24 hours, exchange to a differentiated medium comprising a test compound (a DMEM/F12 medium comprising N2 additive, antibiotic and 1% fetal bovine serum) was conducted. After differentiating for seven days, fixation was conducted with 4% paraformaldehyde and a immunostaining was conducted using a mouse anti-βIII-tubulin antibody (second antibody: FITC-labeled anti-mouse IgG antibody) which is to be an index for differentiation from nerve stem cells to nerve cells).
For example, when 30 μmol/L of (2R)-2-propyloctanoic acid was used, the cell numbers in the no compound-added group were 8±1.3 (in eight visual fields) while those in the group to which the compound was added were 31±4.6 (in eight visual fields).
With regard to the above nerve cells prepared by differentiation of nerve stem cells derived from striatum of rats, their differentiation stage was confirmed by means of immunostaining. Incidentally, for the confirmation of mature nerve cells, anti-MAP2 antibody was used while, for the confirmation of functional nerve cells, anti-GABA antibody was used.

sciatic nerve = details: mature rat, axon of sciatic nerve cut; Brain Research 975, 229-236 (2003); cited from earlier work

CCCCCC[C@@H](CCC)C(=O)O [(2R)-2-propyloctanoic acid]
cells positive to double staining (anti-BrdU and anti-NeuN) per mm, hippocampus CA1 region [1]: 5.7±1.2 cells/mm | Escape latency ([2]; 1 mg/kg oral, session 1): 68.2 ± 3.5 s | Escape latency ([2]; 1 mg/kg oral, session 2): 61.8 ± 4.4 s | Escape latency ([2]; 1 mg/kg oral, session 3): 52.5 ± 6.9 s | Escape latency ([2]; 1 mg/kg oral, session 4): 46.9 ± 7.6 s | successful times compared with the control group (χ2 test) ([2]; 3 mg/kg oral): significant difference | Escape latency ([2]; 3 mg/kg oral, session 1): 63.2 ± 3.8 s | Escape latency ([2]; 3 mg/kg oral, session 2): 48.7 ± 5.5 s | Escape latency ([2]; 3 mg/kg oral, session 3): 42.8 ± 6.4 s | successful times compared with the control group (χ2 test) ([2]; 10 mg/kg oral): significant difference | Escape latency ([2]; 10 mg/kg oral, session 1): 66.8 ± 3.7 s | Escape latency ([2]; 10 mg/kg oral, session 2): 44.5 ± 4.5 s | Escape latency ([2]; 10 mg/kg oral, session 3): 41.4 ± 5.2 s | positive cell numbers per visual field stained by an anti-βIII-tubulin antibody ([3]; 30 μmol/L): 177±11.8 | positive cell numbers stained by an anti-GABA antibody ([3]; 30 μmol/L, no compound-added group 20±1.0): 60±8.8 | positive cell numbers stained by an anti-MAP2 antibody ([3]; 30 μmol/L, no compound-added group 50±7.4): 104±10.3 | positive cell numbers stained by an anti-doublecortin antibody ([3]; 30 μmol/L, no compound-added group 55±5.7): 168±16.6 | positive cell numbers stained by an anti-NeuN antibody ([3]; 30 μmol/L, no compound-added group 106): 199 | positive cell numbers stained by an anti-NSE antibody ([3]; 30 μmol/L, no compound-added group 108): 166 | positive cell numbers per visual field stained by an anti-βIII-tubulin antibody ([3]; 100 μmol/L): 230±11.0 | dead cases [4]: no dead case was noted | Nerve cell density, hippocampus CA1 region [5]: 45.0 ± 5.6 cells/mm | βIII-tubulin-positive (Tuj1+) cell numbers per visual field ([6]; differentiated seven days, eight visual fields, 100 magnifications, no compound-added group 8±1.3): 31±4.6 | positive cell numbers per visual field stained using an anti-GABA antibody ([6]; no compound-added group 19±2.7): 101±9.5 | positive cell numbers per visual field stained using an anti-MAP2 antibody ([6]; no compound-added group 34±0.9): 50±7.4

CCCC(CCC)C(=O)O [2-propylpentanoic acid]
axon elongation and recovery of kinetic function (sciatic nerve): the axon is elongated and kinetic function is recovered | positive cell numbers per visual field stained by an anti-βIII-tubulin antibody ([3]; 300 μmol/L): 174.8±7.8
